Results taken from BindingDB's records for patent US11591342 (Suzhou Sinovent Pharmaceuticals, 2023).
pIC50: −log10 of the molar value.

Biological target: Autotaxin (Homo sapiens, UniProt Q13822)
Experiment: Bioactivity Assay
Protocol: Preparation and Treatment. Stock Solution Preparation. A 10 mM DMSO stock solution was formulated for each compound. A 30 mM DMSO stock solution was formulated for positive control HA130. Preservation: The DMSO stock solutions were stored at room temperature in a desiccator for a short period of time or at −20° C. for a long period of time. Preparation All compounds were serially 3-fold diluted in DMSO from 10 μM to the 10th concentration.A 1000× positive control (10 mM, HA130) and a 1000× negative control (100% DMSO) were prepared. The plates were shaken for 5 min. Preparation of 1× Reaction Buffer:>5× reaction buffer and cold water were mixed well in a volume ratio of 1:4. Preparation of 20 U/mL Choline Oxidase Stock Solution:1 tube of choline oxide in a kit was dissolved in 1× reaction buffer. The aliquots were frozen at −20° C. Preparation of 200 U/mL Horseradish Peroxidase (HRP) Stock Solution:1 tube of HRP in a kit was dissolved in 1 mL of 1× reaction buffer. The aliquots were frozen at −20° C. Preparation of 20 mM Amplex Red Reagent (for Detection) Stock Solution Amplex Red reagent and DMSO were equilibrated at room temperature.

| SMILES | pIC50 |
| --- | --- |
| CCc1nn2ccc(N3CCN(CC(=O)N4CC(O)C4)CC3)nc2c1N(C)c1nc(-c2ccc(F)cc2)c(C#N)s1 [US11591342, Compound S-0041] | 7.41 |
| CCn1nc2ncc(N3CCN(CC(=O)N4CC(O)C4)CC3)cc2c1N(C)c1nc(-c2ccc(F)cc2)c(C#N)s1 [US11591342, Compound S-0043] | 6.19 |
| CCn1nc2cnc(N3CCN(CC(=O)N4CC(O)C4)CC3)cc2c1N(C)c1nc(-c2ccc(F)cc2)c(C#N)s1 [US11591342, Compound S-0044] | 5.26 |
